Source: ChEMBL document CHEMBL1201862, “PubChem BioAssay data set” (2004)
Activity calls are given as the source filed them. Rule as the data show it: actives have a measured IC50 and inactives only a lower limit.

Molecular target: Envelope glycoprotein gp160 (Human immunodeficiency virus 1, UniProt Q6QLK5)
Experiment: cell-free HIV fusion peptide-binding blockers – biochemical, uHTS, fluorescence dequenching, […] (AID 1986)

Sequence of Envelope glycoprotein gp160 (Q6QLK5 whole entry, the tested form may be a part): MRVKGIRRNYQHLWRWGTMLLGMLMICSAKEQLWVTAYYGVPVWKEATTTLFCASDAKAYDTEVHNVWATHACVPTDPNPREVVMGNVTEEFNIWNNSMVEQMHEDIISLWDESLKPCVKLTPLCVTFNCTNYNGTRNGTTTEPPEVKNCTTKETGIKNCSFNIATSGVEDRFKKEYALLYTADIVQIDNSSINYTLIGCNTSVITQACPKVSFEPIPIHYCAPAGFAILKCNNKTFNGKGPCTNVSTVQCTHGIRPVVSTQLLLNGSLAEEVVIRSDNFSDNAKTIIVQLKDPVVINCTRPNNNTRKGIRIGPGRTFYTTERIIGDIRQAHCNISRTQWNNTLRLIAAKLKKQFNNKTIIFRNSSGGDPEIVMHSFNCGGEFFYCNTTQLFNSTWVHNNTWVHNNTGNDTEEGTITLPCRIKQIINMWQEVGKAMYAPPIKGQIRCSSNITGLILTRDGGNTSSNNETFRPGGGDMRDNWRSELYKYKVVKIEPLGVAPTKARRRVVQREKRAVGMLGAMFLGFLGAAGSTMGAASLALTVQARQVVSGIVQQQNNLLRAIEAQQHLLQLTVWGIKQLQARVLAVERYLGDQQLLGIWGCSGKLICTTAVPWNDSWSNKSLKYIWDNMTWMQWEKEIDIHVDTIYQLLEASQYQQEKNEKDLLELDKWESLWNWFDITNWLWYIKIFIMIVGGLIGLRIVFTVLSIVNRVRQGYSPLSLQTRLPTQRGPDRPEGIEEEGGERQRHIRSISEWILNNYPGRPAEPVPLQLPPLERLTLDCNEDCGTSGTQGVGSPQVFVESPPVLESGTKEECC

Row | Structure (SMILES) | IC50
1 | O=C(O)c1cc(N2N=C(C(F)(F)F)/C(=C/C=C/c3ccco3)C2=O)ccc1Cl | 8.25 µM (active)
2 | CCN1C(=O)/C(=C\c2ccc(-c3ccc([N+](=O)[O-])cc3OC)o2)S/C1=N\c1cccc(C(=O)O)c1 | 29.4 µM (active)
